Results published in the NIST ThermoML archive (doi:10.1016/j.fluid.2015.07.004).
Numbers after ± are expanded uncertainties.

Assays:
[1] = osmotic coefficient (dimensionless); mn = molality of the nth substance listed, in mol/kg; conditions: 100 kPa, Liquid, boiling point elevation
[2] = mn = molality of the nth substance listed, in mol/kg; conditions: 298 K, 100 kPa, Liquid, Vibrating tube method

NC(=O)NCCC[C@H](N)C(=O)O [N5-aminocarbonyl-L-ornithine] + O
osmotic coefficient, [1]
Conditions | m1 = 0.1011 | m1 = 0.1989 | m1 = 0.2016 | m1 = 0.3942 | m1 = 0.402 | m1 = 0.4915 | m1 = 0.6001 | m1 = 0.6892
310.15 K | 1.011 ± 0.008 | 1.003 ± 0.008 | – | 0.9986 ± 0.008 | – | 0.9973 ± 0.008 | – | 1.002 ± 0.008
323.15 K | – | – | 1.007 ± 0.008 | – | 1.001 ± 0.008 | – | 0.9931 ± 0.008 | –

[2]
Conditions | mass density [kg/m3]
m1 = 0.1989 | 1008.22 ± 1.1
m1 = 0.3842 | 1018.59 ± 1.2
m1 = 0.6007 | 1029 ± 1.2

C[N+](C)(C)[O-] [trimethylamine oxide] + O
[1]
Conditions | osmotic coefficient
310.15 K, m1 = 0.1988 | 0.9879 ± 0.0081
310.15 K, m1 = 0.406 | 1.034 ± 0.0082
310.15 K, m1 = 0.62 | 1.062 ± 0.0084
310.15 K, m1 = 0.7971 | 1.152 ± 0.0097
310.15 K, m1 = 0.9921 | 1.133 ± 0.0094
310.15 K, m1 = 1.199 | 1.15 ± 0.0098
310.15 K, m1 = 1.392 | 1.192 ± 0.011
310.15 K, m1 = 1.59 | 1.31 ± 0.014
323.15 K, m1 = 0.5008 | 1.076 ± 0.0085
323.15 K, m1 = 1.015 | 1.171 ± 0.01
323.15 K, m1 = 1.5 | 1.27 ± 0.013

[2]
Conditions | mass density [kg/m3]
m1 = 0.406 | 998.235 ± 1.1
m1 = 0.7971 | 999.133 ± 1.1
m1 = 1.199 | 1000.21 ± 1.1
m1 = 1.59 | 1001.54 ± 1.1
m1 = 2.002 | 1002.01 ± 1.1
m1 = 2.445 | 1003.03 ± 1.1

OC[C@H]1O[C@H](O[C@H]2O[C@H](CO)[C@@H](O)[C@H](O)[C@H]2O)[C@H](O)[C@@H](O)[C@@H]1O [α-trehalose] + O
[1], 310.15 K
Conditions | osmotic coefficient
m1 = 0.0499 | 1.031 ± 0.0081
m1 = 0.0998 | 1.036 ± 0.0081
m1 = 0.1997 | 1.02 ± 0.008
m1 = 0.2995 | 0.999 ± 0.008
m1 = 0.3989 | 1.01 ± 0.008
m1 = 0.4992 | 1.022 ± 0.008
m1 = 0.5995 | 0.9904 ± 0.008
m1 = 0.6932 | 1.019 ± 0.008
m1 = 1.469 | 1.063 ± 0.0083
m1 = 1.982 | 1.08 ± 0.0085

[2]
Conditions | mass density [kg/m3]
m1 = 0.1997 | 1022.61 ± 1.2
m1 = 0.3989 | 1046.2 ± 1.2
m1 = 0.5995 | 1068.34 ± 1.2
m1 = 0.7914 | 1087.59 ± 1.3

CN(C)CC(=O)O [(Dimethylamino)acetic acid] + O
[1]
Conditions | osmotic coefficient
310.15 K, m1 = 0.0986 | 1.069 ± 0.0087
310.15 K, m1 = 0.2005 | 1.035 ± 0.0088
310.15 K, m1 = 0.4001 | 1.072 ± 0.0088
310.15 K, m1 = 0.8024 | 1.076 ± 0.0094
310.15 K, m1 = 1.003 | 1.126 ± 0.01
310.15 K, m1 = 1.193 | 1.141 ± 0.011
310.15 K, m1 = 1.401 | 1.147 ± 0.0097
310.15 K, m1 = 1.585 | 1.154 ± 0.0098
310.15 K, m1 = 1.797 | 1.169 ± 0.01
310.15 K, m1 = 1.992 | 1.206 ± 0.011
323.15 K, m1 = 0.2056 | 0.981 ± 0.0084
323.15 K, m1 = 0.2889 | 0.989 ± 0.0084
323.15 K, m1 = 0.4998 | 1.008 ± 0.0087
323.15 K, m1 = 1.015 | 1.021 ± 0.0088
323.15 K, m1 = 1.5 | 1.114 ± 0.009

[2]
Conditions | mass density [kg/m3]
m1 = 0.4001 | 1005.64 ± 1.1
m1 = 1.003 | 1016.88 ± 1.2
m1 = 1.401 | 1024.01 ± 1.2
m1 = 1.992 | 1033.69 ± 1.2
